Patent US20210253511A1, “COMPOUNDS AND USES FOR THE TREATMENT AND PREVENTION OF DISEASES AND CONDITIONS ASSOCIATE WITH OR AGGREVATED BY IMPARED MITOPHAGY” (Yissum Research Development Company of The Hebrew …, priority 2018, published 2021)

Tests used:
[1] = tested on: mitophagy in C. elegans muscles; assay: Mitophagy imaging with Mito-Rosella sensor; format: in vivo; conditions: 1 mM; L4 Rosella worms; 21° C.
Excerpt: FIGS. 8A-8F. (FIG. 8A) is a schematic illustration of the Mito-Rosella sensor function. The Mito-Rosella sensor contains an N-terminal mitochondrial targeting signal, a pH-stable red fluorescent protein and a C-terminal pH-sensitive green fluorescent protein. In non-acidic environment the green to red fluorescent ratio is 0.6-0.8. However, in the autolysosome, where the pH is low, the green fluorescent is quenched and the green to red ratio is decreased to 0.2-0.5. By measuring the mitochondria red and green fluorescence, it was possible to monitor mitophagy in live worms. […] A bar graph presenting the results of mitophagy imaging experiments. L4 larval worms were treated with either 8 mM paraquat or 1 mM 1,8-Diaminooctane for 16 h, at 21° C. Control worms were treatment with similar volume of distilled water and incubated under similar conditions. Asterisks indicate significance for comparisons with control worms. […]
The Mito-Rosella sensor is composed of an N-terminal mitochondrial targeting sequence followed by a pH-insensitive red fluorescent protein (DsRed.T3) and a pH-sensitive green fluorescent protein (pHluorin) (FIG. 8A). In intact mitochondria the green to red fluorescence ratio is high (between 0.6-0.8). However, upon acidification in autolysosome (where mitochondria are degraded) the green fluorescence is quenched and thus the ration is decreased to 0.2-0.5.

[2] = tested on: pink-1(tm1779) mutants / pink-1 RNAi worms; assay: Paraquat survival assay in pink-1 deletion mutant or RNAi knockdown worms; format: in vivo, C. elegans
Protocol: FIGS. 9A-9D show the protective activity of 1,8-Diaminooctane is mitophagy-dependent. (FIG. 9A) is a schematic illustration of the mitophagy pathway in C. elegans. Survival curves presenting the effect of dct-1 and pink-1 deletion mutations (FIG. 9B, FIG. 9C) or RNAi knockdowns (FIG. 9D) on worms' viability in 200 mM PQ at indicated time points. Statistical analysis on PQ survival curves were performed using the log-rank (Mantel-Cox) test with Prism 7 software. The plots represent the average of six independent experiments. The minimum number of worms examined for each experimental condition is 133.
In the first one, the effect of 1,8-Diaminooctane on the survival of dct-1 and pink-1 mutants in PQ was investigated. DCT-1 is an orthologue of the mammalian NIX/BNIP3L and BNIP3 that act as mitophagy receptors, and PINK-1 is a mitochondrial phosphatase and tensin (PTEN)-induced kinase 1 which has a critical function in mitophagy (see K. Palikaras, E. Lionaki, N. Tavernarakis, Coordination of mitophagy and mitochondrial biogenesis during ageing in C. elegans, Nature 521 (7553) (2015) 525-8; and FIG. 3A). It was hypothesized that if mitophagy is essential for the protective effect of 1,8-Diaminooctane, then dct-1 and pink-1 mutants will become sensitive to PQ following treatment. […] The second experiment that was performed was an RNAi experiment. Here, dct-1 and pink-1 were selectively knocked down using RNAi. The RNAi results recapitulated the one of the mutant experiments ([…]). […] Importantly, the RNAi phenotype was less strong compared to the one observed with the deletion mutants. […] The difference between the results could be due to incomplete suppression of dct-1 and pink-1 in the RNAi treated worms. Together, our results verify that 1,8-Diaminooctane protects against oxidative stress by activating mitophagy.

[3] = tested on: C. elegans; assay: Lifespan assay; format: in vivo; conditions: 4 mM from L1; 21° C.; control 12 days; p=0.0063
Protocol: FIG. 10. […] Survival curves comparing the lifespans of worm growing on plates containing 0.25 mM and 4 mM 1,8-Diaminooctane (or vehicle as a control). The curves represent data from at least three independent experiments in which the lifespans of at least 145 worms were measured (for each condition). The lifespan medians and p values are indicated in the parentheses near the treatment legend. All lifespan assays were conducted at 21° C. and started with synchronized L1 larvae. Statistical analysis on lifespan survival curves was performed using the log-rank (Mantel-Cox).
Lifespan assays were performed as described in R. Abergel, L. Livshits, M. Shaked, A. K. Chatterjee, E. Gross, Synergism between soluble guanylate cyclase signaling and neuropeptides extends lifespan in the nematode Caenorhabditis elegans, Aging cell 16 (2) (2017) 401-413. In brief, 12 worms per plate were used. […] Worm's survival was scored every two days for live, dead (when it no longer responded to touch), and missing worms. The worms were transferred into fresh plates every 2 days to avoid progeny contamination and every 4 days when worms are in post-fertile stage, until the end of the experiment. Worms were scored as censored when they display internal progeny hatching (worm bagging), rupture, burrow in the agar or crawl off the plates, however, include them in the lifespan data analysis as censored. […]

NCCCCCCCCN [1,8-Diaminooctane]
mitophagy response (Mito-Rosella green to red fluorescence ratio) [1]: strong mitophagy response | survival in PQ of treated worms, RNAi against pink-1 ([2]; compared to control worms that did not get the treatment, p<0.0001): significantly higher than control worms | resistance to PQ after treatment, pink-1(tm1779) mutants ([2]; compared to treated wild-type worms, 200 mM PQ, p<0.0001): significantly less resistant to PQ | protective effect in PQ, RNAi against pink-1 ([2]; compared to worms treated with mock RNAi (empty vector)): significantly lesser | median lifespan [3]: 15 days
